# Test results reported in US20230302131A1, “MPC INHIBITION FOR PRODUCING T-CELLS WITH A MEMORY PHENOTYPE” (UNIVERSITÉ DE LAUSANNE, priority 2020, published 2023).
# “Also recorded” adds a separate entry of the source.
# What was measured:
# [1] = system: transferred OT1 cells in LM-OVA infected mice; assay: In vivo Listeria-Ova infection model after adoptive transfer of pre-treated OT1 cells; parameters: species or system mouse
# Source text: In order to evaluate whether this memory phenotype is maintained in vivo, 10^5 MPCi- or DMSO-treated OT1 cells were intravenously injected in healthy mice. Twenty-four hours after cell transfer, the mice were infected with a sub-lethal dose of ovalbumine-expressing Listeria monocytogenes (LM-OVA, 2000 CFU i.v.) (FIG. 1H). […] Consequently, 28 days after LM-OVA infection, during the memory phase of the immune reaction, the proportion of central memory T cells (CD44+CD62L+) among the transferred cells in the blood was larger in mice that received cells pre-treated with MPCi (FIG. 1K). Importantly, the effects of the MPC inhibitor were target specific, since an increase in memory T cell differentiation could also be observed when MPC1 KO T cells were transferred in this Listeria model (FIG. 1L-N). In summary, MPCi-treated cells display a consistent memory phenotype upon in vivo transfer in an infection model.
# Activated CD45.1+OT-1 splenocytes were culture in vitro for 7 days as described above, collected and purified on a Ficoll gradient, allowing to separate dead and live splenocytes. Live splenocytes were counted with Trypan blue stain 0.4%. 100′000 live splenocytes were transferred into CD45.2+ host mice by tail vein injection.
# Recombinant bacteria Listeria monocytogenes deficient for actA and expressing the ovalbumin (Ova) peptide SIINFEKL were expanded and tittered. Optical density measured with a spectrophotometer was used to determine bacterial concentration and 2000 CFU were administered in each mouse by tail vein injection, […] after adoptive cell transfer. Blood samples were collected and processed for surface markers and cytokine production analyses.
# Antibody panels for blood analyses contained: CD8-PE-texas-Red, CD45.1-Pacific blue, CD45.2-FITC, CD127-PE, KLRG1-PE-Cy7, CD62L-APC, CD44-APC-Cy7, and CD27-PerCP-Cy5.5.
# adult human CD8 T cells = assay: Adult human PBMC activation with anti-CD3/CD28 beads, T cell phenotype by flow cytometry; assay type: cell-based; conditions: adult PBMCs, day 9, vs DMSO
# Protocol: FIG. 7: MPC inhibition during the activation and culture of adult human T cells induces a memory phenotype. (A) Experimental design. PBMCs were isolated from adult healthy volunteers and activated with anti-CD3/CD28 beads in the presence of DMSO or UK5099 (25 μM). Beads were removed at day 5 and T cell phenotype was analysed at day 9. (B) Percentage of CD8 T cells expressing the memory marker CD62L. (C) The mean fluorescent intensity of CD62L in the respective positive population. (D) Percentage of CD8 T cells expressing markers that allows their identification as stem cell memory T cells (TSCM). (E-F) Mitochonrial mass (identified by MitoGreen staining, E) and mitochondrial membrane potential (TMRM, F), measured by flow cytometry and expressed as fold change as compared to DMSO. (G) Mitochondrial membrane potential normalized for the mitochondrial mass, expressed as the ratio of […], fold change as compared to DMSO. Pooled data from 2 independant experiments. ns: non-significant, *p<0.05, **[…], ***p<0.001. Data represents mean±s.e.m.
# Heparinised blood was diluted with PBS and pipetted on top of Ficoll-paque (LymphoPrep). After centrifugation at 1800 rpm for 20 minutes at room temperature, the layer of cells at the intersection, containing the PBMCs was removed, washed and resuspended at 5×10^5 cells/ml of RPMI medium containing 8% human serum (AB serum), antibiotics, 2 mM L-Glutamine, 1% non-essential amino acids, 1 mM sodium pyruvate and 50 μM β-mercaptoethanol (all Gibco). Cells were activated with Human T-activator CD3/CD28 Dynabeads at a 1 bead/cell ratio with 150 IU/ml human recombinant IL2 and DMSO or 25 μM UK5099. Throughout the culture, cells were regularly split when necessary and beads were removed at day 5. At day 9, a fraction of the cells was stained with antibodies for flow cytometry analysis or for mitochondrial analysis.
# [2] = system: human CD8 T cells from umbilical cord blood; assay: Human cord blood PBMC culture with anti-CD3/CD28 beads, CD62L in CD8 T cells by flow cytometry; assay type: cell-based; conditions: 25 μM; day 11; 3 different donors; versus DMSO
# Protocol: To most closely mimic the experimental conditions that were successful by using naïve mouse OT1 CD8 T cells, it was tested whether the MPCi on the most naïve human CD8+ T cells can be obtained, i.e. from umbilical cord blood (FIG. 1E).
# Peripheral blood mononuclear cells were isolated from fresh umbilical vein cord blood on a Percoll gradient. PBMCs were then cultured in RPMI supplemented with 10% human serum. 10^4 PBMC's were seeded per well in a round bottom 96-well plate and activated with anti-CD3/CD28 beads at a 1:2 cell:bead ratio and 300 U/ml rhIL-2, in the presence of 25 μM UK5099 or DMSO. Cells were regularly split and CD62L expression was determined by flow cytometry on day 11.
# [3] = system: transferred OT1 CD8 T cells; ovalbumine-expressing B16 melanoma; assay: Vaccination model with UK5099 as vaccine adjuvant, then B16 melanoma challenge; assay type: in vivo, mouse; conditions: vs DMSO; for control of B16 tumor growth after challenge: 0.5 mg s.c. at d0 and d2, B16 challenge 40 days post-vaccination, tumor growth and weight
# Source text: One of the main goals of preventive and therapeutic vaccination in the context of pathogen infection and cancer is the establishment of a potent memory CD8 T cell pool. Since it was observed that MPC inhibition during in vitro priming of antigen-specific CD8 T cells increases their memory formation, it was investigated whether the MPCi could be used as a vaccine adjuvant. 10^5 naïve OT1 CD8 T cells were […] in healthy mice and the mice were subsequently vaccinated by a subcutaneous injection of 50 μg CpG and 10 μg SIINFEKL containing additionally 0.5 mg UK5099 or and equal volume of DMSO as control. 48 hours later, the mice received another subcutaneous injection of 0.5 mg UK5099 or and equal volume of DMSO (FIG. 4A). […] It was investigated whether this would render them better prepared for a subsequent antigen challenge, and injected 10^5 ovalbumine-expressing B16 melanoma cells s.c. in the flank of the mice at 40 days post-vaccination (FIG. 4A).
# Naïve CD8 T cells were isolated from OT1 spleens (negative selection, Stem Cell Technologies). 1×10^5 T cells were i.v. transferred in WT C57BL/6 mice, followed by a subcutaneous injection of the vaccine, consisting of 10 μg SIINFEKL peptide, 50 μg CpG and 0.5 mg UK5099 or DMSO diluted in a total of 100 μl PBS per mouse. 2 days post-vaccination, mice received a second dose of s.c. 0.5 mg UK5099 or DMSO. After 2 weeks, blood was collected from the tail vein and analyzed by flow cytometry. 40 days post-vaccination, mice were challenged by an s.c. injection of 1×10^5 SIINFEKL-expressing B16 melanoma cells. 17 days later, mice were sacrificed and the tumor was dissected.
compound,measurement,setting,value
"N#CC(=Cc1cn(-c2ccccc2)c2ccccc12)C(=O)O [UK5099, 2-cyano-3-(1-phenyl-1H-indol-3-yl)-2-propenoic acid]",proportion of central memory T cells (CD44+CD62L+) among the transferred cells in the blood,"[1]; 28 days after LM-OVA infection, vs DMSO",larger
same,"frequency of memory precursor cells (CD127+, KLRG1low)","[1]; day 7 post-LM-OVA, blood, pre-treated OT1 cells vs DMSO",significantly increased
same,frequency of the transferred cells in blood,"[1]; weekly bleeding, peak of immune response and contraction phase, cells pre-treated in vitro",did not reveal significant differences
same,population of stem cell-like memory T cells (TSCM),adult human CD8 T cells; 25 μM,increased
same,population of CD8 T cells positive for CD62L,adult human CD8 T cells; UK5099 25 μM,further induce
same,mean fluorescent intensity of the CD62L signal in the CD62L-positive cells,adult human CD8 T cells,increased
same,CD62L expression in human cord blood CD8 T cells,[2],significant increase
same,control of B16 tumor growth after challenge,[3],protects against tumor growth
same,control of B16 tumor growth after challenge,[3]; listed as MPCi,much better in controlling the tumor growth
same,proportion of transferred OT1 CD8 T cells that formed memory precursor cells,"[3]; 0.5 mg s.c. at d0 and d2 with CpG and SIINFEKL, blood 14 days after vaccination",drives a memory phenotype; also recorded: increased proportion
